Measured values published in the supplement of paper PMC10627819.

How the values were obtained:
[1] = test system: B. subtilis 168; assay: fitness (endpoint OD595 vs no drug) (fraction); higher = more growth
Summary of the method: (§1)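 Fitness compares growth at the stationary-phase transition with the robust mean of no-drug control wells, as a ratio of optical densities. The ratio is capped at 1. Wells of 384-well plates held 30 µl, or 55 µl for S. pneumoniae, inoculated at OD595 0.01. Readings at OD595 every 30 min for 14 h at 37 °C were corrected against the first reading.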

[2] = test system: S. aureus DSM 20231; assay: as above
Summary of the method: as §1

[3] = test system: S. aureus Newman; assay: as above
Summary of the method: as §1

[4] = test system: S. pneumoniae D39V; assay: as above
Summary of the method: as §1

[5] = test system: B. subtilis 168; assay: Bliss interaction score (quartile over a dose matrix) (fitness difference); higher = more antagonism (negative = synergy)
Summary of the method: (§2)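 The Bliss score is observed minus expected fitness under the product model, reported as quartiles over technical, biological and donor/recipient replicates. Fitness is the OD595 at entry into stationary phase divided by the plate's robust no-drug mean and capped at 1. Single-drug fitness was inferred from combination data.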

[6] = test system: S. aureus DSM 20231; assay: as above
Summary of the method: as §2

[7] = test system: S. aureus Newman; assay: as above
Summary of the method: as §2

[8] = test system: S. pneumoniae D39V; assay: as above
Summary of the method: as §2
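Wherever Bliss interaction score (quartile over a dose matrix) is given: first quartile when negative (synergy) and third quartile when positive (antagonism).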

CCC[C@@H]1C[C@@H](C(=O)N[C@@H]([C@H]2O[C@H](SC)[C@H](O)[C@@H](O)[C@H]2O)[C@H](C)Cl)N(C)C1 [Clindamycin] + COc1ccc(C[C@H](N)C(=O)N[C@H]2[C@@H](O)[C@H](n3cnc4c(N(C)C)ncnc43)O[C@@H]2CO)cc1 [Puromycin]
one replicate
Details | fitness
[1], first compound 0.0039 µg/mL, partner 0.39 µg/mL | 0.956
[1], first compound 0.0039 µg/mL, partner 0.78 µg/mL | 0.946
[1], first compound 0.0039 µg/mL, partner 1.56 µg/mL | ≥ 1
[1], first compound 0.0078 µg/mL, partner 0.39 µg/mL | 0.853
[1], first compound 0.0078 µg/mL, partner 0.78 µg/mL | 0.876
[1], first compound 0.0078 µg/mL, partner 1.56 µg/mL | 0.92
[1], first compound 0.0156 µg/mL, partner 0.39 µg/mL | 0.826
[1], first compound 0.0156 µg/mL, partner 0.78 µg/mL | 0.907
[1], first compound 0.0156 µg/mL, partner 1.56 µg/mL | 0.894
[2], first compound 0.0312 µg/mL, partner 3.12 µg/mL | 0.487
[2], first compound 0.0312 µg/mL, partner 6.24 µg/mL | 0.14
[2], first compound 0.0625 µg/mL, partner 3.12 µg/mL | 0.212
[2], first compound 0.0625 µg/mL, partner 6.24 µg/mL | 0.0867
[2], first compound 0.125 µg/mL, partner 3.12 µg/mL | 0.0522
[2], first compound 0.125 µg/mL, partner 6.24 µg/mL | 0.0492
[4], first compound 0.015 µg/mL, partner 1 µg/mL | 0.746
[4], first compound 0.015 µg/mL, partner 2 µg/mL | 0.84
[4], first compound 0.015 µg/mL, partner 4 µg/mL | 0.583
[4], first compound 0.03 µg/mL, partner 1 µg/mL | 0.591
[4], first compound 0.03 µg/mL, partner 2 µg/mL | 0.625
[4], first compound 0.03 µg/mL, partner 4 µg/mL | 0.218
[4], first compound 0.06 µg/mL, partner 1 µg/mL | 0.177
[4], first compound 0.06 µg/mL, partner 2 µg/mL | 0.102
[4], first compound 0.06 µg/mL, partner 4 µg/mL | 0.114

Details | fitness
[1], first compound 0.0625 µg/mL, partner 0.39 µg/mL | 0.534
[1], first compound 0.0625 µg/mL, partner 0.78 µg/mL | 0.52
[1], first compound 0.0625 µg/mL, partner 1.56 µg/mL | 0.564
[1], first compound 0.125 µg/mL, partner 0.39 µg/mL | 0.378
[1], first compound 0.125 µg/mL, partner 0.78 µg/mL | 0.355
[1], first compound 0.125 µg/mL, partner 1.56 µg/mL | 0.366
[1], first compound 0.25 µg/mL, partner 0.39 µg/mL | 0.347
[1], first compound 0.25 µg/mL, partner 0.78 µg/mL | 0.335
[1], first compound 0.25 µg/mL, partner 1.56 µg/mL | 0.344
[2], first compound 0.0625 µg/mL, partner 1.56 µg/mL | 0.179
[2], first compound 0.125 µg/mL, partner 0.39 µg/mL | 0.0343
[2], first compound 0.125 µg/mL, partner 0.78 µg/mL | 0.0367
[2], first compound 0.125 µg/mL, partner 1.56 µg/mL | 0.0565
[3], first compound 0.0312 µg/mL, partner 0.39 µg/mL | 0.741
[3], first compound 0.0312 µg/mL, partner 0.78 µg/mL | 0.717
[3], first compound 0.0312 µg/mL, partner 1.56 µg/mL | 0.713
[3], first compound 0.0625 µg/mL, partner 0.39 µg/mL | 0.395
[3], first compound 0.0625 µg/mL, partner 0.78 µg/mL | 0.412
[3], first compound 0.0625 µg/mL, partner 1.56 µg/mL | 0.326
[3], first compound 0.125 µg/mL, partner 0.39 µg/mL | 0.101
[3], first compound 0.125 µg/mL, partner 0.78 µg/mL | 0.115
[3], first compound 0.125 µg/mL, partner 1.56 µg/mL | 0.13
[4], first compound 0.0125 µg/mL, partner 1 µg/mL | 0.766
[4], first compound 0.0125 µg/mL, partner 2 µg/mL | 0.712
[4], first compound 0.0125 µg/mL, partner 4 µg/mL | 0.473
[4], first compound 0.025 µg/mL, partner 1 µg/mL | 0.533
[4], first compound 0.025 µg/mL, partner 2 µg/mL | 0.475
[4], first compound 0.025 µg/mL, partner 4 µg/mL | 0.33
[4], first compound 0.05 µg/mL, partner 1 µg/mL | 0.261
[4], first compound 0.05 µg/mL, partner 2 µg/mL | 0.192
[4], first compound 0.05 µg/mL, partner 4 µg/mL | 0.11

Details | Bliss interaction score
[5] | 0.0463
[6] | -0.0327
[7] | -0.0646
[8] | -0.123
